The test system of data set [1] is anesthetized rats. Nature of the data set: Effect on heart rate, systolic blood pressure and double product (myocardial oxygen consumption, method of Neill). The data set is classed as in vivo. The note with it: administered as ditartrate; for Change DP: vs initial value. On the procedure: The influence of the active compounds according to the present invention on myocardial oxygen consumption has been investigated in animal models and determined according to the method of Neill as described by W. A. Neill, H. H. Levine, R. J. Wagman, and P. Gorlin in Circulation Research, Vol. 12, page 163 (1963). The blood circulation measurements which are required for these tests, namely, systolic blood pressure and heart rate, were determined according to the design of experimental procedure as described by G. Buschmann, W. Schumacher, R. Budden, and U. G. Kuehl in J. Cardiovasc. Pharmacol., Vol. 2, pages 777-795 (1980). As is evident from the following Table 1, the active compound reduces the product* of heart rate and systolic blood pressure. Thus, the tested compound reduces the consumption of oxygen to be supplied to the heart. This effect is observed in intravenous administration (i.v.) as well as on intraduodenal administration (i.d.) and is to be attributed to the action of the compound tested.
Effect upon heart rate (FRQ), systolic blood pressure (Ps)
and the double product (DP) determined on anesthetized rats

Data set [2] relates to aconitine-induced ventricular extrasystoles in rats. Kind of data set: Anti-arrhythmic activity, aconitine test in rats (method of Raschak). Particulars: for Change in time to occurrence of ES: vs vehicle control. The data set is classed as in vivo, male Wistar rats. As for the experimental part:
When administering aconitine to rats by continuous intravenous infusion, there are observed in the electrocardiogram considerable disturbances in the heartbeat, such as, for instance, ventricular extrasystoles. The tested animals were male Wistar rats of the weight class between 250 g. and 350 g. The influence of an active compound according to the present invention upon such rats after an aconitine infusion was determined according to the method of Raschak as described by M. Raschak in Arzneim. Forsch. vol. 25, No. 4, pages 639-641 (1975). […] The active compound was administered intravenously in the form of an isotonic sodium chloride solution, i.e. the vehicle, in a dose of 6.0 μmole/kg. The dose administered is one twenthieth of the lethal dose (LD50) as determined on mice. […] After intravenous administration of the active compound to be tested and of the control solution, the aconitine solution was administered by infusion in an amount which was constant per time unit. The period of time was measured within which ventricular extrasystoles (ES) were observed. Said period of time, in minutes, is given in Table 2 as well as the difference in the period of time observed on administering the test compound and the control solution.
One of the active compounds tested is the compound of Example 3, No. 302, i.e., N,N-di-n-butyl-9,9-dimethyl-3,7-diaza bicyclo-(3,3,1)-nonane as described hereinafter. There are also given the results obtained by testing an equitoxic amount of the drug known under the trademark "Lidocain", i.e., 2-(diethylamino)-N-(2,6-dimethyl phenyl)-acetamide.
Anti-arrhythmic activity determined by the […]

The subject of data set [3] is left atrium cordis of guinea pigs. Kind of data set: Functional refractory period and contractile force of the electrically stimulated left atrium cordis (paired stimulation, method of Govier). Also on record: species or system female albino Pirbright-white guinea pigs. Particulars: for EC (125%) / IC25: Cavia porcellus, administered as di-tartrate; for EC (125%): 0.3 h, 18 minutes after administration, read-out: FRP 125% (concentration prolonging functional refractory period to 125%); for IC25: left atrium, read-out: F 75% (concentration reducing contractile force to 75% of initial value); for quotient F 75%/FRP 125%: therapeutic index of the anti-arrhythmic action on the isolated organ. The text has this: 148, No. 1, pages 100-105 (1965). All anti-arrhythmic drugs which at present are used in therapy and which differ in their chemical structure are distinguished by being able to prolong the functional refractory period. In addition thereto said method permits to detect the effects of compounds on the contractile force of the myocardium. […] Said quotient supplies information regarding the therapeutic index of the anti-arrhythmic action of a compound on the isolated organ. See P. Greef in Verhandlung der Deutschen Gesellschaft fuer Kreislaufforschung vol. 35, pages 88-97 (1969).

Data set [4] has as its system right atrium cordis of guinea pigs. Nature of the data set: Heart rate of the spontaneously beating, isolated right atrium cordis. Also on record: species or system female albino Pirbright-white guinea pigs. Particulars: Cavia porcellus, 20 min; 20 minutes after administration; administered as di-tartrate; read-out: FRQ 75% (concentration decreasing heart rate to 75% of initial value). As for the experimental part: The direct effect of the active compound on the heart rate (FPQ) was tested on the spontaneously beating, isolated right atrium cordis of female albino Pirbright-white guinea pigs (GP) of the weight class between 300 g. and 400 g. In Table 3 there is given, as FPQ 75%, the concentration in μmole/l. by which a decrease of the heart rate to 75% of the initial value is achieved 20 minutes after administration of the compound to be tested.

Data set [5] is described as follows: in vivo. Particulars: mouse, po, peroral administration, mice.

The values that follow come from patent US4742172A, “Intermediates for synthesizing pharmaceutically active 3,7-diazabicyclo-(3,3,1)-nonane compounds” (Kali-Chemie Pharma GmbH, priority 1982, dated 1988).

Regarding `CCCCN1CC2CN(CCCC)CC(C1)C2(C)C` [Example 3, No. 302, N,N'-di-n-butyl-9,9-dimethyl-3,7-diaza bicyclo-(3,3,1)-nonane], the “DP (double product of heart rate and systolic blood pressure)” value turned out to be 25 mm.Hg/min. × 1000 in data set [1] (13.5 μmole/kg i.v., initial value 39) and 30 mm.Hg/min. × 1000 in data set [1] (100 μmole/kg i.d., initial value 41). Further, the “Ps (systolic blood pressure)” value in data set [1] (13.5 μmole/kg i.v., initial value 104) stood at 147 mm.Hg; in data set [1] (100 μmole/kg i.d., initial value 101), 125 mm.Hg. The “FRQ (heart rate)” value in data set [1] (13.5 μmole/kg i.v., initial value 372) was 174 min⁻¹; in data set [1] (100 μmole/kg i.d., initial value 406) it was 238 min⁻¹. Moreover, the “Change DP” value was -36% in data set [1] (13.5 μmole/kg i.v.) and -27% in data set [1] (100 μmole/kg i.d.). In data set [2] (6.0 μmole/kg i.v., vehicle control 6.7 min, administered as di-tartrate), the “Time to occurrence of ES (ventricular extrasystoles)” value was 8.2 min. The “Change in time to occurrence of ES” value in data set [2] (6.0 μmole/kg i.v., administered as di-tartrate) was “+23%”. In addition, the EC (125%) in data set [3] came to 1 µM. Further, the IC25 in data set [3] turned out to be 104 µM; in data set [4], 3 µM. Besides, in data set [3], the “quotient F 75%/FRP 125%” value is on record as 104. Besides, the LD50 (as a rule, the dose expected to kill half of the subjects tested) in data set [5] was found to be 1040 µmol/kg.

On to `CN1CC2CN(C)CC(C1)C2(C)C` [Comparative compound, N,N',9,9-tetramethyl diaza bicyclo-(3,3,1)-nonane, reference compound], for which, in data set [3], the EC (125%) was 122 µM, the IC25 was about 215 µM and the “quotient F 75%/FRP 125%” value was “about 2”. For the same molecule, the IC25 in data set [4] was about 215 µM.

As for `CCN(CC)CC(=O)Nc1c(C)cccc1C` [Lidocain, 2-(diethylamino)-N-(2,6-dimethylphenyl)-acetamide, reference compound], the “Time to occurrence of ES (ventricular extrasystoles)” value in data set [2] (10.0 μmole/kg i.v. (equitoxic amount), vehicle control 6.3 min) stood at 6.6 min. The “Change in time to occurrence of ES” value in data set [2] (10.0 μmole/kg i.v. (equitoxic amount)) is “+5%”.
